In the supplement of paper PMC10307832:

What was measured:
Assay in all cases: relative viability (nuclei count vs DMSO), 5 days (fraction); higher = more cells survive
Trametinib + Decitabine = compound: CC(=O)Nc1cccc(-n2c(=O)n(C3CC3)c(=O)c3c(Nc4ccc(I)cc4F)n(C)c(=O)c(C)c32)c1 [Trametinib] + Nc1ncn([C@H]2C[C@H](O)[C@@H](CO)O2)c(=O)n1 [Decitabine] (partner 2 µM)
In short: (§1)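 Lung cancer cell lines in 1536-well plates were dosed by pin tool the day after seeding, either with one drug alone or with a fixed anchor-drug dose plus five library-drug doses (not always all listed) in √10 steps. After 5 days, cells were fixed and their nuclei stained in one step (final 0.05% Triton X-100, 1% formaldehyde, 1 ug/ml Hoechst), then counted on 4× images. Relative viability is the nuclei count in treated wells divided by that in vehicle wells. Values are medians of duplicate plates.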

[1] = compound: CN1C=C(C2=CC=CC=C21)/C=C\3/C4=C(C=CC=N4)NC3=O + CC(=O)Nc1cccc(-n2c(=O)n(C3CC3)c(=O)c3c(Nc4ccc(I)cc4F)n(C)c(=O)c(C)c32)c1 [Trametinib] (partner 0.02 µM)
In short: as §1

Trametinib + Lapatinib = compound: CC(=O)Nc1cccc(-n2c(=O)n(C3CC3)c(=O)c3c(Nc4ccc(I)cc4F)n(C)c(=O)c(C)c32)c1 [Trametinib] + CS(=O)(=O)CCNCc1ccc(-c2ccc3ncnc(Nc4ccc(OCc5cccc(F)c5)c(Cl)c4)c3c2)o1 [Lapatinib] (partner 2 µM)
In short: as §1

Trametinib + Dasatinib = compound: CC(=O)Nc1cccc(-n2c(=O)n(C3CC3)c(=O)c3c(Nc4ccc(I)cc4F)n(C)c(=O)c(C)c32)c1 [Trametinib] + Cc1nc(Nc2ncc(C(=O)Nc3c(C)cccc3Cl)s2)cc(N2CCN(CCO)CC2)n1 [Dasatinib] (partner 0.075 µM)
In short: as §1

Row | Cell Line | relative viability (Trametinib + Decitabine; first compound 0.0025 µM) | relative viability (Trametinib + Decitabine; first compound 0.007906 µM) | relative viability (Trametinib + Decitabine; first compound 0.025 µM) | relative viability (Trametinib + Decitabine; first compound 0.07906 µM) | relative viability (Trametinib + Decitabine; first compound 0.25 µM) | relative viability ([1]; first compound 0.02 µM) | relative viability ([1]; first compound 0.6325 µM) | relative viability ([1]; first compound 2 µM) | relative viability (Trametinib + Lapatinib; first compound 0.0025 µM) | relative viability (Trametinib + Lapatinib; first compound 0.007906 µM) | relative viability (Trametinib + Lapatinib; first compound 0.025 µM) | relative viability (Trametinib + Lapatinib; first compound 0.07906 µM) | relative viability (Trametinib + Lapatinib; first compound 0.25 µM) | relative viability (Trametinib + Dasatinib; first compound 0.0025 µM) | relative viability (Trametinib + Dasatinib; first compound 0.007906 µM) | relative viability (Trametinib + Dasatinib; first compound 0.025 µM) | relative viability (Trametinib + Dasatinib; first compound 0.07906 µM) | relative viability (Trametinib + Dasatinib; first compound 0.25 µM) | relative viability ([1]; first compound 0.06325 µM) | relative viability ([1]; first compound 0.2 µM)
1 | EKVX | 0.36 | 0.351 | 0.326 | 0.372 | 0.222 | 0.268 | 0.233 | 0.201 | 0.177 | 0.154 | 0.136 | 0.155 | 0.157 | 0.398 | 0.492 | 0.31 | 0.226 | 0.221 |  | 
2 | HCC-827 | 0.365 | 0.289 | 0.315 | 0.274 | 0.236 | 0.509 | 0.571 | 0.566 | 0.191 | 0.164 | 0.178 | 0.208 | 0.228 | 0.301 | 0.243 | 0.246 | 0.144 | 0.157 | 0.528 | 
3 | NCI-H1755 | 0.72 | 0.703 | 0.679 | 0.678 | 0.594 | 0.782 | 0.737 | 0.696 | 0.969 | 0.897 | 0.849 | 0.871 | 0.863 | 0.409 | 0.433 | 0.492 | 0.427 | 0.322 | 0.83 | 0.76
4 | NCI-H661 | 0.522 | 0.537 | 0.484 | 0.412 | 0.431 | 0.615 | 0.533 | 0.589 | 0.43 | 0.451 | 0.448 | 0.341 | 0.421 | 0.816 | 0.796 | 0.565 | 0.481 | 0.513 | 0.65 | 0.56
5 | NCI-H1944 | 0.446 | 0.379 | 0.403 | 0.386 | 0.294 | 0.359 | 0.405 | 0.444 | 0.76 | 0.632 | 0.588 | 0.493 | 0.396 | 0.193 | 0.177 | 0.164 | 0.144 | 0.145 | 0.359 | 
6 | NCI-H1648 | 0.508 | 0.44 | 0.554 | 0.517 | 0.371 | 0.691 | 0.532 | 0.482 |  |  |  |  |  |  |  |  |  |  | 0.543 | 0.42
7 | NCI-H522 | 0.783 | 0.602 | 0.678 | 0.64 | 0.672 | 0.746 | 0.752 | 0.852 |  |  |  |  |  | 0.892 | 0.913 | 0.665 | 0.724 | 0.671 | 0.712 | 0.793
8 | EBC-1 |  |  |  |  |  |  |  |  | 0.189 | 0.199 | 0.189 | 0.225 | 0.213 |  |  |  |  |  |  | 
9 | ChaGo-K-1 | 0.52 | 0.494 | 0.576 | 0.467 | 0.497 | 0.864 | 0.871 | 0.871 |  |  |  |  |  | 0.586 | 0.605 | 0.567 | 0.475 | 0.48 | 0.917 | 0.868
10 | NCI-H1299 |  |  |  |  |  |  |  |  | 1.01 | 0.994 | 0.901 | 0.87 | 0.555 |  |  |  |  |  |  | 
11 | NCI-H1623 |  |  |  |  |  |  |  |  |  |  |  |  |  | 0.487 | 0.449 | 0.306 | 0.378 | 0.618 |  | 
12 | NCI-H441 | 0.272 | 0.248 | 0.259 | 0.25 | 0.168 | 0.468 | 0.544 | 0.52 |  |  |  |  |  | 0.37 | 0.49 | 0.249 | 0.287 | 0.206 | 0.511 | 0.492
13 | LCLC-103H | 0.754 | 0.68 | 0.692 | 0.689 | 0.596 | 0.645 | 0.667 | 0.681 |  |  |  |  |  | 0.498 | 0.512 | 0.429 | 0.402 | 0.446 | 0.691 | 0.718
14 | HCC-44 | 0.894 | 0.924 | 1.05 | 0.943 | 0.848 | 1.08 | 1.04 | 0.884 | 0.996 | 0.868 | 0.929 | 0.701 | 0.493 |  |  |  |  |  | 1.12 | 0.968
15 | IA-LM |  |  |  |  |  |  |  |  | 0.251 | 0.31 | 0.101 | 0.136 | 0.0905 |  |  |  |  |  |  | 
16 | CAL-12T |  |  |  |  |  | 0.32 | 0.325 | 0.298 | 0.54 | 0.514 | 0.47 | 0.648 | 0.429 | 0.232 | 0.219 | 0.268 | 0.165 | 0.104 | 0.308 | 0.315
17 | A549 | 0.224 | 0.245 | 0.209 | 0.168 | 0.0957 |  |  |  | 0.749 | 0.667 | 0.618 | 0.499 | 0.0742 |  |  |  |  |  |  | 
18 | NCI-H1563 |  |  |  |  |  |  |  |  | 0.973 | 0.937 | 0.808 | 0.84 | 0.61 | 0.466 | 0.509 | 0.467 | 0.438 | 0.464 |  | 
19 | Calu-6 |  |  |  |  |  |  |  |  | 0.962 | 0.779 | 0.566 | 0.237 | 0.165 |  |  |  |  |  |  | 
20 | NCI-H2342 | 0.775 | 0.69 | 0.646 | 0.673 | 0.637 | 0.921 | 0.655 | 0.686 |  |  |  |  |  | 0.298 | 0.28 |  | 0.3 | 0.303 | 0.753 | 0.725
